Measurements: the kinase profiling compilation of Christmann-Franck et al. (2016)

Columns and labels:
[1] = target: TTK (human) (UniProt P33981); assay: KINOMEscan competition binding; conditions: for kinase still bound, per cent of control: compound 10.0 µM
[2] = target: GAK (human) (UniProt O14976); assay: KINOMEscan competition binding; conditions: compound 10.0 µM
[3] = target: PLK1 (human) (UniProt P53350); assay: KINOMEscan competition binding; conditions: compound 10.0 µM
[4] = target: PLK4 (human) (UniProt O00444); assay: KINOMEscan competition binding; conditions: compound 10.0 µM
Chain of PLK4 (human) (O00444 whole entry, looked up): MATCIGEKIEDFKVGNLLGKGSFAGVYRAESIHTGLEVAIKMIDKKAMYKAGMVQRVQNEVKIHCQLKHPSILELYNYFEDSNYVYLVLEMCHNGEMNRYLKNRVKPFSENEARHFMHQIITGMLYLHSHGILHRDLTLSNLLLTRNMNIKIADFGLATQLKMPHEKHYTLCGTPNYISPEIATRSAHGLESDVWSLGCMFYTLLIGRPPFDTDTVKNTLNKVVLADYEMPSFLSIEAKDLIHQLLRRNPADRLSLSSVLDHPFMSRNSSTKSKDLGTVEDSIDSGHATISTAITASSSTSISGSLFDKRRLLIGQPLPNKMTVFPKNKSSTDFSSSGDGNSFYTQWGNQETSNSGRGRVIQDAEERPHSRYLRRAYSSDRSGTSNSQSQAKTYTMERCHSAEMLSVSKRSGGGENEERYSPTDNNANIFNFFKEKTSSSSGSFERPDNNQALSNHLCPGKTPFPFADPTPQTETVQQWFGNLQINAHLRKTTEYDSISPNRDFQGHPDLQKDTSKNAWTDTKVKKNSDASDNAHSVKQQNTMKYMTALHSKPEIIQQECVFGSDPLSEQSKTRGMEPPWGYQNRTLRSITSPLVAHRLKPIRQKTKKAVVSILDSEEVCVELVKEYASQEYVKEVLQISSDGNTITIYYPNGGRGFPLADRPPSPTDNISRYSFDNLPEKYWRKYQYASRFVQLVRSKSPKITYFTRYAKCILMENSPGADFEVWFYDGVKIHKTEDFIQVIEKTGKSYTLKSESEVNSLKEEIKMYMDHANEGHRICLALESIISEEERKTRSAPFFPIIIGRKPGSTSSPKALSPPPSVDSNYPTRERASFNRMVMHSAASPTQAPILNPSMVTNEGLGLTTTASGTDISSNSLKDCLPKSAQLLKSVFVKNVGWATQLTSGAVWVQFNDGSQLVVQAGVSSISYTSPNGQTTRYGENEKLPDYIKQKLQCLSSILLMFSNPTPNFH

[5] = target: JAK2 JH1 catalytic (human) (UniProt O60674); assay: KINOMEscan competition binding; conditions: compound 10.0 µM
[6] = target: PTK6 (human) (UniProt Q13882); assay: SelectScreen, TR FRET
[7] = target: TTK (human) (UniProt P33981); assay: SelectScreen, TR FRET
[8] = target: CSF1R (human) (UniProt P07333); assay: SelectScreen, TR FRET
[9] = target: DCLK2 (human) (UniProt Q8N568); assay: SelectScreen, TR FRET
Chain of DCLK2 (human) (Q8N568 whole entry, looked up): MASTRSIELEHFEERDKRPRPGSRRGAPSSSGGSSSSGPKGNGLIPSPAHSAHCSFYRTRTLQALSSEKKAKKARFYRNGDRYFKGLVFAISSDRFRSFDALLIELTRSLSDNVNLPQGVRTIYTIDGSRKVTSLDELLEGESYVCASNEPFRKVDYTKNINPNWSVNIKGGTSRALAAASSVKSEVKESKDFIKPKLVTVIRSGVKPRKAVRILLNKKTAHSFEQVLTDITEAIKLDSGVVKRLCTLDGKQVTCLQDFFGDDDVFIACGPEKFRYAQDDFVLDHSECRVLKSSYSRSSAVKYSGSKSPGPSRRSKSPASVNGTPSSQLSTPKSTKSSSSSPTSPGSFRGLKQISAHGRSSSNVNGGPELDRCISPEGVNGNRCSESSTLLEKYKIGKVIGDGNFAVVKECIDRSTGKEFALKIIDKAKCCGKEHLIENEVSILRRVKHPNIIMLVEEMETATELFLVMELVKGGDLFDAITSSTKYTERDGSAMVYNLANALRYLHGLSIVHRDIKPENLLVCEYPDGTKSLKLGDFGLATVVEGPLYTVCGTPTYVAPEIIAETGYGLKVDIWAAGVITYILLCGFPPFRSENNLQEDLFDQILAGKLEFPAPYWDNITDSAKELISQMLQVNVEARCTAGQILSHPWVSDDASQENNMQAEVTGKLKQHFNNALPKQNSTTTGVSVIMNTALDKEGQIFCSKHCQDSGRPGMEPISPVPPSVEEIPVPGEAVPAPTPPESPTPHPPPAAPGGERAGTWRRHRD

[10] = target: FRK (human) (UniProt P42685); assay: SelectScreen, TR FRET
[11] = target: CSNK1G1 (human) (UniProt Q9HCP0); assay: KINOMEscan competition binding; conditions: compound 10.0 µM
[12] = target: CLK2 (human) (UniProt P49760); assay: KINOMEscan competition binding; conditions: compound 10.0 µM
[13] = target: CLK4 (human) (UniProt Q9HAZ1); assay: KINOMEscan competition binding; conditions: compound 10.0 µM
[14] = target: MAPK10 (human) (UniProt P53779); assay: KINOMEscan competition binding; conditions: compound 10.0 µM
[15] = target: PIM3 (human) (UniProt Q86V86); assay: KINOMEscan competition binding; conditions: compound 10.0 µM
[16] = test system: EIF2AK4 KD2 (human), Q9P2K8 [S808G]; assay: KINOMEscan competition binding; conditions: compound 10.0 µM
[17] = target: PAK2 (human) (UniProt Q13177); assay: KINOMEscan competition binding; conditions: compound 10.0 µM
[18] = target: AAK1 (human) (UniProt Q2M2I8); assay: KINOMEscan competition binding; conditions: compound 10.0 µM
[19] = target: STK17A (human) (UniProt Q9UEE5); assay: KINOMEscan competition binding; conditions: compound 10.0 µM
[20] = target: HIPK1 (human) (UniProt Q86Z02); assay: KINOMEscan competition binding; conditions: compound 10.0 µM
Chain of HIPK1 (human) (Q86Z02 whole entry, looked up): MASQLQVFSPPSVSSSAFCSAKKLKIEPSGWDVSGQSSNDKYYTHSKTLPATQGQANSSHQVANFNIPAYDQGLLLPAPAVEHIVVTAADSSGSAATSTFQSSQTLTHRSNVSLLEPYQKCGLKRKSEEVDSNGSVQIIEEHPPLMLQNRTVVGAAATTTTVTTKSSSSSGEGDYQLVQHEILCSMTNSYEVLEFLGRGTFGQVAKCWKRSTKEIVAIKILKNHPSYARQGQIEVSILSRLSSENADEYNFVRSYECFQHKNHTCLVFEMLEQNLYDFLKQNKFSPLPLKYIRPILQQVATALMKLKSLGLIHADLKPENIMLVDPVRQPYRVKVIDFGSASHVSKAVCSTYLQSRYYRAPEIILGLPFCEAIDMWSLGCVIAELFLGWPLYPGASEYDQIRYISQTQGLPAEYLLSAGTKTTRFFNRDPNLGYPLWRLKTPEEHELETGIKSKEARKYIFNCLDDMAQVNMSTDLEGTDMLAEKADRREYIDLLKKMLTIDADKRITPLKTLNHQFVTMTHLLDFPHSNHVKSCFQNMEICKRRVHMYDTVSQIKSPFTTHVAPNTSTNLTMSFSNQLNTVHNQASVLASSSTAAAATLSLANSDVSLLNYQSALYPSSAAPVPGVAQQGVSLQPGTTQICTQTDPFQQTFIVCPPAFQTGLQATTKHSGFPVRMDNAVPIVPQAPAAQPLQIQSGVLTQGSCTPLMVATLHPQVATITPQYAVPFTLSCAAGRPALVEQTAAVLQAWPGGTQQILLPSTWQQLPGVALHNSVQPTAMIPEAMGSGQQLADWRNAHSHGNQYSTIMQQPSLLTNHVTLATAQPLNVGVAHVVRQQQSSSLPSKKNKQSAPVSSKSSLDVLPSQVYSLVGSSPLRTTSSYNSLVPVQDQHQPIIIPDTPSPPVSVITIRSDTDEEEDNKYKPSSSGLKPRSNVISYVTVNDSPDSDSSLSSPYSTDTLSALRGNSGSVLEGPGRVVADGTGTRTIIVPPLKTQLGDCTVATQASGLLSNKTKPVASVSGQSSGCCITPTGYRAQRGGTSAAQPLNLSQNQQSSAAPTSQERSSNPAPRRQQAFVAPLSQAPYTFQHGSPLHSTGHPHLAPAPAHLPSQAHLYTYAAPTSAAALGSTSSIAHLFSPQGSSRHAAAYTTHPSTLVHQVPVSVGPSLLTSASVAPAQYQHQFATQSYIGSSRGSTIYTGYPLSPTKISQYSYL

[21] = target: DAPK2 (human) (UniProt Q9UIK4); assay: KINOMEscan competition binding; conditions: compound 10.0 µM
[22] = target: CAMKK2 (human) (UniProt Q96RR4); assay: KINOMEscan competition binding; conditions: compound 10.0 µM
[23] = target: RPS6KA5 KD2 (human) (UniProt O75582); assay: KINOMEscan competition binding; conditions: compound 10.0 µM
[24] = target: DAPK3 (human) (UniProt O43293); assay: KINOMEscan competition binding; conditions: compound 10.0 µM
[25] = target: DYRK1B (human) (UniProt Q9Y463); assay: KINOMEscan competition binding; conditions: compound 10.0 µM
[26] = target: MAP4K2 (human) (UniProt Q12851); assay: KINOMEscan competition binding; conditions: compound 10.0 µM
[27] = target: MAPK8 (human) (UniProt P45983); assay: KINOMEscan competition binding; conditions: compound 10.0 µM
[28] = target: CLK1 (human) (UniProt P49759); assay: KINOMEscan competition binding; conditions: compound 10.0 µM
[29] = target: RPS6KA4 KD2 (human) (UniProt O75676); assay: KINOMEscan competition binding; conditions: compound 10.0 µM
[30] = target: BMPR1B (human) (UniProt O00238); assay: KINOMEscan competition binding; conditions: compound 10.0 µM
[31] = target: STK17B (human) (UniProt O94768); assay: KINOMEscan competition binding; conditions: compound 10.0 µM
[32] = target: DAPK1 (human) (UniProt P53355); assay: KINOMEscan competition binding; conditions: compound 10.0 µM
[33] = target: PIM1 (human) (UniProt P11309); assay: KINOMEscan competition binding; conditions: compound 10.0 µM
[34] = target: PIM2 (human) (UniProt Q9P1W9); assay: KINOMEscan competition binding; conditions: compound 10.0 µM
[35] = target: HIPK1 (human) (UniProt Q86Z02); assay: SelectScreen, TR FRET
[36] = target: HIPK2 (human) (UniProt Q9H2X6); assay: SelectScreen, TR FRET
[37] = target: DYRK1A (human) (UniProt Q13627); assay: SelectScreen, TR FRET
[38] = target: DYRK1B (human) (UniProt Q9Y463); assay: SelectScreen, TR FRET
[39] = target: ROS1 (human) (UniProt P08922); assay: KINOMEscan competition binding; conditions: compound 10.0 µM
[40] = target: RPS6KA1 KD2 (human) (UniProt Q15418); assay: KINOMEscan competition binding; conditions: compound 10.0 µM
[41] = target: RPS6KA6 KD2 (human) (UniProt Q9UK32); assay: KINOMEscan competition binding; conditions: compound 10.0 µM
[42] = target: DCLK1 (human) (UniProt O15075); assay: KINOMEscan competition binding
[43] = target: TNK2 (human) (UniProt Q07912); assay: KINOMEscan competition binding; conditions: compound 10.0 µM
[44] = target: TNK1 (human) (UniProt Q13470); assay: KINOMEscan competition binding; conditions: compound 10.0 µM
[45] = target: MAPK7 (human) (UniProt Q13164); assay: KINOMEscan competition binding; conditions: compound 10.0 µM
[46] = target: DCLK2 (human) (UniProt Q8N568); assay: KINOMEscan competition binding; conditions: compound 10.0 µM
[47] = target: ALK (human) (UniProt Q9UM73); assay: KINOMEscan competition binding; conditions: compound 10.0 µM
[48] = test system: ABL1 (human), P00519 [F317I]; assay: KINOMEscan competition binding; conditions: compound 10.0 µM
[49] = target: TAOK2 (human) (UniProt Q9UL54); assay: SelectScreen, TR FRET
[50] = target: MAP3K2 (human) (UniProt Q9Y2U5); assay: SelectScreen, TR FRET
[51] = target: MAP3K3 (human) (UniProt Q99759); assay: SelectScreen, TR FRET
[52] = target: LRRK2 (human), Q5S007 [G2019S]; assay: SelectScreen, TR FRET

Chain of TTK (human) (P33981 whole entry, looked up): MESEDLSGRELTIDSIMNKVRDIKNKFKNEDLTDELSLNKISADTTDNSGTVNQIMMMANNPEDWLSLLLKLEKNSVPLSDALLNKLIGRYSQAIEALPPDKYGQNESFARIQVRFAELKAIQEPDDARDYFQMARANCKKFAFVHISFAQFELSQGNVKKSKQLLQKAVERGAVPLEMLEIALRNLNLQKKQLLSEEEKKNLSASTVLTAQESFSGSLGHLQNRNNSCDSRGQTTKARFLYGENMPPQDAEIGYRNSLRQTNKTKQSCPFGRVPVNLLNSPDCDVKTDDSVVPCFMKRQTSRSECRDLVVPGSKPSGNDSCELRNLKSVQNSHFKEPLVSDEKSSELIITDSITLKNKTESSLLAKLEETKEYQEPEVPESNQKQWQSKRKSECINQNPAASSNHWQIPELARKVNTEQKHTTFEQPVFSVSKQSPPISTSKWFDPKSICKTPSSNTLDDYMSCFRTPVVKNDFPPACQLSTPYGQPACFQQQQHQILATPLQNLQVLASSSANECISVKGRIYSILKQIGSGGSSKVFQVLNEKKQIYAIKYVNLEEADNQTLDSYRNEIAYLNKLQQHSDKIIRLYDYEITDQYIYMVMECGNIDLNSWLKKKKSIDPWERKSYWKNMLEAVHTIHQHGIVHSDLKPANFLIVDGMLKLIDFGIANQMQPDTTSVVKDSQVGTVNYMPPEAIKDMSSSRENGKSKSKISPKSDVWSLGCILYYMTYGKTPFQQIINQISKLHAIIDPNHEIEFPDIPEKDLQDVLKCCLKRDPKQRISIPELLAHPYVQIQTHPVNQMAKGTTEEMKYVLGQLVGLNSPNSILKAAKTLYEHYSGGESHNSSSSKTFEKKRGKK
Chain of GAK (human) (O14976 whole entry, looked up): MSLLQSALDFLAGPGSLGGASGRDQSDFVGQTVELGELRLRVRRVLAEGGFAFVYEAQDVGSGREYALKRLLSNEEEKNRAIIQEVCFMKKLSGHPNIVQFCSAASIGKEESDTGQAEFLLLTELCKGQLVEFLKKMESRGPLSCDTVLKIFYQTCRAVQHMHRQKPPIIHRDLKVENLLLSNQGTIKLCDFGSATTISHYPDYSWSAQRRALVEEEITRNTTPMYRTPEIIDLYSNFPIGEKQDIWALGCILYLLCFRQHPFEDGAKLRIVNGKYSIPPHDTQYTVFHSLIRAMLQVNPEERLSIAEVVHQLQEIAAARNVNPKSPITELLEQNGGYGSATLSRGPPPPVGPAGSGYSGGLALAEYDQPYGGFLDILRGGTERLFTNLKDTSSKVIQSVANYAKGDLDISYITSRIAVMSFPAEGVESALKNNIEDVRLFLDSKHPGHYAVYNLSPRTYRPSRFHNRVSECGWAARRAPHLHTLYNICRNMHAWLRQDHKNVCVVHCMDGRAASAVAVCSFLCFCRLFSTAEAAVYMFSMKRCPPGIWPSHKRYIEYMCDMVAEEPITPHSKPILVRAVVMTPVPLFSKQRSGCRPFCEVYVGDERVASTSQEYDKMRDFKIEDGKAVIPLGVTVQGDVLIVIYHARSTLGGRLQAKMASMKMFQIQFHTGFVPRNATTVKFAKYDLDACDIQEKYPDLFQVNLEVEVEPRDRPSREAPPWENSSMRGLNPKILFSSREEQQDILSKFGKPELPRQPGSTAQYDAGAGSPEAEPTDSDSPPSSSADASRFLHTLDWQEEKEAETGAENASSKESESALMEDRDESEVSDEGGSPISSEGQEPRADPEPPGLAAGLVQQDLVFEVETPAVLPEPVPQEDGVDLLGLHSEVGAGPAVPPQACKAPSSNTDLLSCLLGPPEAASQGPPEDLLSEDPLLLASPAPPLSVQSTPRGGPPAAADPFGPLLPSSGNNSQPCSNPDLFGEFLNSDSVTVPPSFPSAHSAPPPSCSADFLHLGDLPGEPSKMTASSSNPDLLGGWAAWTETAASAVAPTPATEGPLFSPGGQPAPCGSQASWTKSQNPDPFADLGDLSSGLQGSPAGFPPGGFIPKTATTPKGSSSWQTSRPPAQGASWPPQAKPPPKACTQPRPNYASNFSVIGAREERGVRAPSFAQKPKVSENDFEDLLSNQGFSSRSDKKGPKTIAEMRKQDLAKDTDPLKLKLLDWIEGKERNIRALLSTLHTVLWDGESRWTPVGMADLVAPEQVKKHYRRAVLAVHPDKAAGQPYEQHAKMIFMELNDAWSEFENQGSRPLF

Structure (SMILES): CN1C(=O)CCN(C2CCCC2)c2nc(Nc3ccc(N4CCC(O)CC4)cn3)ncc21
- Kd [1]: 130 nM
- kinase still bound, per cent of control [1]: 2.2%
- kinase still bound, per cent of control [2]: 23%
- kinase still bound, per cent of control [3]: 24%
- kinase still bound, per cent of control [4]: 16%
- kinase still bound, per cent of control [5]: 6.4%
- IC50 [6]: 47 nM
- IC50 [7]: 891 nM
- IC50 [8]: 428 nM
- IC50 [9]: 3.2 µM
- IC50 [10]: 264 nM

Structure (SMILES): N=C1NC(=O)/C(=C/c2c[nH]c(=O)c(-c3ccc4cc[nH]c4c3)c2)S1
- kinase still bound, per cent of control [11]: 24%
- kinase still bound, per cent of control [12]: 4.8%
- kinase still bound, per cent of control [13]: 30%
- kinase still bound, per cent of control [14]: 29%
- kinase still bound, per cent of control [15]: 12%
- kinase still bound, per cent of control [16]: 21%
- kinase still bound, per cent of control [17]: 34%
- kinase still bound, per cent of control [18]: 20%
- kinase still bound, per cent of control [19]: 5%
- kinase still bound, per cent of control [20]: 4.2%
- kinase still bound, per cent of control [21]: 4%
- kinase still bound, per cent of control [22]: 29%
- kinase still bound, per cent of control [23]: 23%
- kinase still bound, per cent of control [24]: 8.6%
- kinase still bound, per cent of control [25]: 8.6%
- kinase still bound, per cent of control [26]: 15%
- kinase still bound, per cent of control [27]: 28%
- kinase still bound, per cent of control [28]: 24%
- kinase still bound, per cent of control [29]: 8.8%
- kinase still bound, per cent of control [30]: 6.2%
- kinase still bound, per cent of control [31]: 13%
- kinase still bound, per cent of control [32]: 9.7%
- kinase still bound, per cent of control [33]: 16%
- kinase still bound, per cent of control [34]: 15%
- IC50 [35]: 3.81 µM
- IC50 [36]: 3.89 µM
- IC50 [37]: 19 nM
- IC50 [38]: 62 nM

Structure (SMILES): CCOc1cc(N2CCC(O)CC2)ccc1Nc1ncc2c(n1)N(C)c1ccccc1C(=O)N2C
- kinase still bound, per cent of control [39]: 15%
- kinase still bound, per cent of control [40]: 28%
- kinase still bound, per cent of control [1]: 19%
- kinase still bound, per cent of control [41]: 31%
- kinase still bound, per cent of control [2]: 31%
- Kd [42]: 97 nM
- kinase still bound, per cent of control ([42]; compound 10.0 µM): 0.9%
- kinase still bound, per cent of control [43]: 17%
- kinase still bound, per cent of control [44]: 7.8%
- kinase still bound, per cent of control [4]: 2.8%
- kinase still bound, per cent of control [45]: 0%
- kinase still bound, per cent of control [46]: 0.65%
- kinase still bound, per cent of control [47]: 29%
- kinase still bound, per cent of control [48]: 30%
- IC50 [49]: 54.3 nM
- IC50 [50]: 155 nM
- IC50 [51]: 120 nM
- IC50 [52]: 2.6 nM
